Test results: patent publication US7189750B2, “Thiazole-based nitric oxide donors having at least two thiazole moieties and uses thereof” (priority 2004, dated 2007)

Tests used:
Type in all cases: cell-based
[1] = test system: c-GMP in slices of thoracic aorta of rats; test: Cyclic-GMP measurement in aortic rat tissue (radioimmunoassay); settings: for levels of cGMP as compared with GTN: isolated rat aorta; for cGMP Post-infusion / cGMP Pre-infusion: rat aorta; for cGMP Post-infusion: post-infusion (repeated treatment)
Method: GTN (10^−6 M) was added to the chamber and, 1 minute after exposure to the drug, rings (usually 3–5) were taken, wrapped with aluminum foil and immediately frozen in liquid nitrogen for storage. Control sample group was treated with the vehicle solution only. At the time of analysis, rings were thawed, blotted over a dry gauzed and weighted. A known weight of tissue was homogenized in 2 ml ice-cold modified Hank's balanced salt solution containing (in gram/liter) NaCl 8; KCl 0.4; glucose 1; KH2PO4 0.06; Na2HPO4 0.047; Phenol red 0.017 and further containing 25 mM EDTA (disodium salt). The homogenate was centrifuged at 4000 g (force units) for 10 minutes at 2–4° C. and the supernatant was thereafter transferred into fresh pre-cooled test tube containing 1 ml of acetonitrile. The tubes were vortex mixed for a few seconds and subsequently centrifuged at 4000 g for 5 minutes at 2–4° C., to remove the precipitated protein. Each supernatant was transferred into a clean test tube and evaporated to dryness under a stream of nitrogen at 55° C. The dry residue was reconstituted with 10 volumes of Tris-EDTA buffer pH 7.5 (0.05 M Tris containing 4 mM EDTA). Aliquots of 100 μl of the reconstituted solution in duplicate were used for c-GMP measurements using Amersham RIA kit, as is described in Haj-Yehia & Benet [Pharmacology, 1995, 273, 1, pp. 94–100]. Standard curves were plotted with six concentrations (0, 0.5, 1, 2, 4 and 8 pmoles of c-GMP per tube).
The NO-tolerance effect of GTN and NO-donor compounds according to the present invention was measured by following the production of c-GMP in slices of thoracic aorta of rats. Thus, the production of c-GMP was measured as described in the methods section above for the reference NO-donor compound GTN, and for the NO-donors of the present invention Pet-2, Pet-3, Pet-7, Pet-8, Pet-10, Pet-12, Pet-24, Pet-59, Pet-147, Pet-149, Pet-152, Pet-154 and Pet-155.

isolated rat aorta [2] = test: In vitro induction of tolerance and cross-tolerance: vasorelaxation of pre-exposed rat aortic rings; settings: for EC50: Rattus norvegicus; for tolerance induction in vitro: rings pre-treated with epinephrine and then with the same compound (0.44 mM)
Method: Aortic rings were prepared as described hereinabove, and were exposed to 0.44 mM GTN (vehicle was water:ethanol:propyleneglycol at proportional ratio of 1:1:1) for 1 hour before CCRC construction, to thereby induce tolerance to nitroglycerine. At the end of the tolerance induction period, rings were thrice washed with the path buffer (Krebs-bicrbonate) every 15 minutes for the following hour and then CCRC for vasorelaxation on GTN-induced tolerance rings were constructed for GTN (pretreated versus untreated rings, FIG. 15), in order to verify the ability to induce and measure GTN tolerance induction in vitro
Attempted induction of tolerance to the NO-donating compounds of the present invention was performed under the same conditions as for GTN. Thus, in an exemplary experiment, rings were exposed to 0.44 mM solution of Pet-3 in the attempt to induce tolerance for Pet-3. CCRC were then measured for the vasorelaxing effect of Pet-3 on a group of rings which were pre-exposed to Pet-3 as to induce tolerance to Pet-3, and for an untreated control group. The above protocol was repeated with Pet-2, Pet-7, Pet-8, Pet-12, Pet-24, Pet-43, Pet-149 and Pet-152.
Cross-tolerance studies were conducted using the same technique described above for measuring vasorelaxation of aortic rings from rats. Two groups of aortic rings samples were pre-treated with GTN, then one group was measured for vasorelaxation by GTN and the second group for vasorelaxation by Pet-12, an exemplary NO-donor according to the present invention. For the opposite cross-tolerance studies, two groups of aortic rings samples were pre-treated with Pet-12, then one group was measured for vasorelaxation by GTN and the second group for vasorelaxation by Pet-12.

isolated rat aorta [3] = test: In vitro vasorelaxation of epinephrine-contracted rat aortic rings (CCRC); settings: for vasorelaxation effect as compared with glyceryltrinitrate: isolated rat aorta, 1 μM epinephrine
From the text: Male Sprague Dawley rats were anaesthetized using intraperitoneal injection of ketamine and xylazine (50 and 10 milligram per kilogram, respectively) and the thoracic aorta, the large upper portion of the descending aorta, starting at the caudal border of the chest bone, was removed thereafter, while carefully removing the paraadventetial tissue surrounding the vessel. Aortae were cut into rings of 4–5 millimeters and mounted onto the tissue path. The path buffer (Krebs-bicrbonate) was constantly gassed with carbogen and maintained at 37° C. The rings were preloaded under 2 g tension and equilibrated for 90 minutes, while refreshing the buffer every 15 minutes. After stabilization, the rings were contracted with epinephrine (1 μM). Cumulative Concentration-Response Curves (CCRC) were measured for the vasorelaxing effect induced by adding various concentrations, ranging from 10^−10 M to 10^−5 M of Pet-2, Pet-3, Pet-7, Pet-8, Pet-12, Pet-24, Pet-43, Pet-59, Pet-147, Pet-152 and Pet-154, and glyceryltrinitrate (GTN), according to the procedure described in Feelich et al., Molecular Pharmacology, 56:243–253 (1999). The vehicle, which was used for this experiment was water:ethanol:propyleneglycol at proportional ratio of 1:1:1.
The vasorelaxing effect of the thiazole-derived NO-donors according to the present invention was measured on slices of thoracic aorta of rats contracted with epinephrine, as described hereinabove.

[4] = vasorelaxation of rings pre-exposed to 0.44 mM of the same compound for 1 hour, given as negative log value, read-out: EC50 (converted)
[5] = vasorelaxation of rings pre-exposed to 0.44 mM of the same compound for 1 hour, read-out: Concentration
[6] = vasorelaxation, rat aortic rings contracted with 1 μM epinephrine, 10^−10 M to 10^−5 M, read-out: Concentration
[7] = vasorelaxation, rat aortic rings contracted with 1 μM epinephrine, given as negative log value, read-out: EC50 (converted)
[8] = Rattus norvegicus, read-out: Concentration

Structure (SMILES)	levels of cGMP as compared with GTN [1]	EC50 (isolated rat aorta [2]; [4]) [nM]	EC50 (isolated rat aorta [2]; [5]) [nM]	vasorelaxation effect as compared with glyceryltrinitrate (isolated rat aorta [3])	EC50 (isolated rat aorta [3]; [6]) [nM]	EC50 (isolated rat aorta [3]; [7]) [nM]	cGMP Post-infusion [1] [pmol/g tissue]	cGMP Pre-infusion [1] [pmol/g tissue]	EC50 (isolated rat aorta [2]; 1 h) [nM]	EC50 (isolated rat aorta [2]; 1 h, read-out: Concentration) [nM]	tolerance induction in vitro (isolated rat aorta [2])	EC50 (isolated rat aorta [3]; Rattus norvegicus) [nM]	EC50 (isolated rat aorta [3]; [8]) [nM]
Cc1nc(NC(=O)[C@@H](C)c2ccc(CC(C)C)cc2)sc1CCO[N+](=O)[O-] (stereo in doubt) [Pet-152, 2-(4-Isobutyl-phenyl)-N-[4-methyl-5-(2-nitrooxy-ethyl)-thiazol-2-yl]-propionamide]	increased	50.1	50.1	superior	50.1	50.1	–	–	–	–	–	–	–
Cc1nc(C)c(CCO[N+](=O)[O-])s1 [Pet-3, 2,4-Dimethyl-5-(2-nitrooxy-ethyl)-thiazole]	increased	–	–	superior	–	–	118 ± 10	122 ± 14	50.1	50.1	absence of tolerance induction	35.5	35.5
Cc1nc(N(C)C)sc1CCO[N+](=O)[O-] [Pet-7, Dimethyl-[4-methyl-5-(2-nitrooxy-ethyl)-thiazol-2-yl]-amine]	increased	35.5	50.1	10 fold	28.2	28.2	123 ± 12	120 ± 12	–	–	absence of tolerance induction	–	–
Cc1nc(-c2ccccc2)sc1CCO[N+](=O)[O-] [Pet-8, 4-Methyl-5-(2-nitrooxy-ethyl)-2-phenyl-thiazole]	increased	25.1	25.1	superior	28.2	20	136 ± 12	133 ± 10	–	–	–	–	–
Cc1nc(N)sc1CCO[N+](=O)[O-] [Pet-10, 4-methyl-5-(2-nitrooxy-ethyl)-thiazole-2-ylamine]	increased	–	–	–	–	–	–	–	–	–	–	–	–
CNc1cncc(-c2nc(C)c(CCO[N+](=O)[O-])s2)n1 [Pet-24, Methyl-{6-[4-methyl-5-(2-nitrooxy-ethyl)-thiazol-2-yl]-pyrazin-2-yl}-amine]	increased	251	251	–	200	200	112 ± 10	115 ± 14	–	–	absence of tolerance induction	–	–
Cc1nc(Nc2nc(C)c(CCO[N+](=O)[O-])s2)sc1CCO[N+](=O)[O-] [Pet-43, Bis-[4-methyl-5-(2-nitrooxy-ethyl)-thiazol-2-yl]-amine]	–	–	–	superior	–	–	–	–	251	251	absence of tolerance induction	158	159
Cc1nc(-c2ccc(C(F)(F)F)cc2)sc1CCO[N+](=O)[O-] [Pet-59, 4-Methyl-5-(2-nitrooxy-ethyl)-2-(4-trifluoromethyl-phenyl)-thiazole]	increased	–	–	superior	79.4	79.4	–	–	–	–	–	–	–
CCNc1nc(C)c(CCO[N+](=O)[O-])s1 [Pet-147, Ethyl-[4-methyl-5-(2-nitrooxy-ethyl)-thiazol-2-yl]-amine]	increased	–	–	–	31.6	31.6	–	–	–	–	–	–	–
Cc1nc(Nc2cccc3ccccc23)sc1CCO[N+](=O)[O-] [Pet-149, [4-Methyl-5-(2-nitrooxy-ethyl)-thiazol-2-yl]-naphthalen-1-yl-amine]	increased	39.8	43.3	superior	–	–	115 ± 14	112 ± 12	–	–	absence of tolerance induction	–	–
Cc1nc(NC(=O)c2cccnc2)sc1CCO[N+](=O)[O-] [Pet-154, N-[4-methyl-5-(2-nitrooxy-ethyl)-thiazol-2-yl]-nicotinamide]	increased	39.8	39.8	–	39.8	39.8	–	–	–	–	–	–	–
C=CCNc1nc(C)c(CCO[N+](=O)[O-])s1 [Pet-155, allyl-[4-methyl-5-(2-nitrooxy-ethyl)-thiazol-2-yl]-amine]	increased	50.1	50.1	superior	–	–	–	–	–	–	–	–	–
